From patent publication US20240287614A1, “RECIPROCAL MICRORNA-MRNA PAIRINGS AS BIOMARKERS AND THERAPEUTIC TARGETS IN CANCER” (UNIVERSITY OF MARYLAND, EASTERN SHORE, priority 2023, published 2024)

Columns and labels:
[1] = system: prostate cancer (LNCaP and PC-3) and prostate cancer (RC77 T/E and MDA PCa 2b) cell lines; assay: BrdU-labeling cell proliferation assay; format: cell-based, human; conditions: PC-3, RC77 T/E and MDA PCa 2b, 48 h transfection, vs NS
Method: (§1) […] RC77 T/E, a primary prostate cancer cell line derived from a patient, was kindly provided by Dr. Johng Rhim at Center for Prostate Disease Research (CPDR) in Rockville, MD. LNCaP and PC-3 were served as prostate cancer cell line models, and RC77 T/E and MDA PCa 2b were served as prostate cancer cell models in the study. The cells were cultured in specific cell culture media, LNCaP was cultured in RPMI with 10% fetal bovine serum (FBS), PC-3 was cultured in DMEM with 10% FBS, MDA PCa 2b were cultured in BRFF-HPC1 with 20% FBS and RC77 T/E was cultured in Keratinocyte SFM with Human Recombinant Epidermal Growth Factor (EGF 1-53) and Bovine Pituitary Extract (BPE). Cells were maintained at 37° C. in a 5% CO2 incubator. LNCaP, PC-3 and MDA PCa 2b cells were seeded at density 3×10^4 cells/well in 6-well plates. RC77 T/E cells were seeded at density 5×10^4 cells/well in 6-well plates. […]
LNCaP, PC-3, RC77 T/E and MDA PCa 2b cells were seeded at density 3×10^4 cells/well in 6-well culture plates. […] 100 μL of stop solution was used to stop further reaction and followed by checking absorbance at dual wavelengths of 450 nm and 540 nm using Multiskan FC microplate photometer (Thermo Scientific).

PIK3CB = assay: RT-qPCR of PIK3CB expression after miRNA mimic transfection; format: cell-based, human; conditions: African American and European American prostate cancer cells; vs nonsense/scrambled (NS) miRNA control
Method: as §1
(§2) For the measurement of gene expression level, total RNA was isolated using miRNeasy Mini Kit (50) (Qiagen) from the prostate cancer cells used in the study. Quantification of total RNA samples were done using NanoVue Plus spectrophotometer (GE Healthcare). […] Reverse transcription was performed using iScript Reverse Transcription Supermix kit (Bio-Rad) to generate cDNA then followed by performing quantitative PCR (qPCR) assays using SsoAdvanced Universal SYBR Green supermix kit (Bio-Rad). […]

IGFBP2 [2] = assay: RT-qPCR of IGFBP2 expression after miRNA mimic transfection; format: cell-based, human; conditions: African American and European American prostate cancer cells; vs nonsense/scrambled (NS) miRNA control
Method: as §1, §2

IGFBP2 [3] = assay: Western blot of IGFBP2 in transfected prostate cancer cells; format: cell-based, human; conditions: mimic transfected vs NS transfected
Method: as §1
(§3) For measurement of the gene expression at protein level, proteins were extracted using M-PER Mammalian Protein Extraction Reagent (Thermo Fisher Scientific) with protease and phosphatase inhibitor cocktail (Thermo Fisher Scientific). Protein concentrations were quantified using BCA assay kit (Thermo Fisher Scientific). […]

[4] = system: prostate cancer (LNCaP and PC-3) and prostate cancer (RC77 T/E and MDA PCa 2b) cell lines; assay: Caspase 3/7 activity-based apoptosis assay, prostate cancer cell lines; parameters: species or system human; conditions: for apoptosis (caspase 3/7 activity), docetaxel treatment alone: without miRNA mimic/antagomir transfection
Method: […] RC77 T/E, a primary prostate cancer cell line derived from a patient, was kindly provided by Dr. Johng Rhim at Center for Prostate Disease Research (CPDR) in Rockville, MD. LNCaP and PC-3 were served as prostate cancer cell line models, and RC77 T/E and MDA PCa 2b were served as prostate cancer cell models in the study. The cells were cultured in specific cell culture media, LNCaP was cultured in RPMI with 10% fetal bovine serum (FBS), PC-3 was cultured in DMEM with 10% FBS, MDA PCa 2b were cultured in BRFF-HPC1 with 20% FBS and RC77 T/E was cultured in Keratinocyte SFM with Human Recombinant Epidermal Growth Factor (EGF 1-53) and Bovine Pituitary Extract (BPE). Cells were maintained at 37° C. in a 5% CO2 incubator. LNCaP, PC-3 and MDA PCa 2b cells were seeded at density 3×10^4 cells/well in 6-well plates. RC77 T/E cells were seeded at density 5×10^4 cells/well in 6-well plates. The cells were allowed to grow for 24 h and then were either transfected with miR-34a-5p mimic, miR-99b-5p mimic, or miR-96-5p antagomir using DharmaFECT4 transfection reagent (Dharmacon), according to the manufacturer's protocol. After 24 h, the cells were replaced with fresh media then incubated for 24 h. miR-34a-5p mimic, miR-99b-5p mimic, miR-96-5p antagomir, and nonsense miRNA mimic and antagomir controls were purchased from Ambion. Nonsense/scrambled miRNA mimic and antagomir were used as negative controls.
For the measurement of apoptosis initiation by transfection of miRNA mimic or antagomir in prostate cancer cells, the transfected cells 5000 cells/well were seeded onto 96-well cell culture plates (Corning) and then incubated overnight. The miRNA mimic/antagomir transfected cells were then treated with vehicle or […] of Docetaxel. 24 h after the vehicle or drug treatment, the apoptosis assays were performed using Apo-ONE Caspase-3/7 Assay Kit (Promega Corporation) according to the protocol described by the manufacturer. 100 μL of homogeneous Caspase-3/7 reagent was added to the sample plate and incubated at room temperature for 1 h. Fluorescence was detected for measuring the apoptosis state (Caspase 3/7 activity) using Biotek Synergy HT Microplate Reader (BioTek) at wavelengths of 499 nm and 521 nm for excitation and emission, respectively.

PI3Kβ = assay: Western blot of PI3Kβ in transfected prostate cancer cells; format: cell-based, human; conditions: mimic transfected vs NS transfected
Method: as §1, §3

HIF1A [5] = assay: RT-qPCR of HIF1A expression after miRNA mimic transfection; format: cell-based, human; conditions: African American and European American prostate cancer cells; vs nonsense/scrambled (NS) miRNA control
Method: as §1, §2

HIF1A [6] = assay: Western blot of HIF1a in transfected prostate cancer cells; format: cell-based, human; conditions: mimic transfected vs NS transfected
Method: as §1, §3

[7] = RC77 T/E and MDA PCa 2b, 11 mM of Docetaxel, 24 h

Compound	cell proliferation (BrdU labeling) [1]	PIK3CB expression (RT-qPCR) (PIK3CB)	IGFBP2 expression (RT-qPCR) (IGFBP2 [2])	IGFBP2 protein level (Western blot) (IGFBP2 [3])	docetaxel-induced cytotoxicity (caspase 3/7 activity), combination with docetaxel ([4]; LNCaP cells, 11 mM of Docetaxel, 24 h)	apoptosis (caspase 3/7 activity), transfection in the presence of docetaxel [4, 7]	cell apoptosis (caspase 3/7 activity) compared with NS transfected cells ([4]; absence of docetaxel (vehicle control), LNCaP, PC-3, RC77 T/E, MDA PCa 2b)	PI3Kβ protein level (Western blot) (PI3Kβ)	HIF1A expression (RT-qPCR) (HIF1A [5])	HIF1a protein level (Western blot) (HIF1A [6])	apoptosis (caspase 3/7 activity), docetaxel treatment alone ([4]; LNCaP, 11 mM of Docetaxel, 24 h)	apoptosis (caspase 3/7 activity), docetaxel treatment alone [4, 7]	apoptosis (caspase 3/7 activity), docetaxel treatment alone ([4]; androgen-independent PC-3, 11 mM of Docetaxel, 24 h)
miR-34a-5p mimic: miRNA mimic of miR-34a-5p (SEQ ID NO: 1, UGGCAGUGUCUUAGCUGGUUGU), purchased from Ambion (listed as RNA, chemistry not given here; listed as Homo sapiens)	reduction	decreased	decreased	downregulated	further enhanced	significantly induced apoptosis	overall generalized or significant increase	downregulated	decreased	downregulated			
CC(=O)O[C@@]12CO[C@@H]1C[C@H](O)[C@@]1(C)C(=O)[C@H](O)C3=C(C)[C@@H](OC(=O)[C@H](O)[C@@H](NC(=O)OC(C)(C)C)c4ccccc4)C[C@@](O)([C@@H](OC(=O)c4ccccc4)[C@H]21)C3(C)C [docetaxel, reference compound]											significantly induced apoptosis	not	not
